Measurements from patent US20240383908A1, “SYNTHESIS AND APPLICATION OF PHOSPHATASE DEGRADER” (HINOVA PHARMACEUTICALS INC., priority 2021, published 2024).
Counter-ions that a name gives are not always drawn.

Key:
Type in all cases: cell-based
MV-411 cell line = test: Inhibition of cell proliferation, MV-411 (CCK-8); conditions: Homo sapiens, MV4-11, 120 h, MV411 cells, 5 days, read-out: Inhibition activity on the proliferation of different cell lines MV411 (IC50)
Description: • MV-411 cell line (COBIER, CBP-60522) • FBS (GEMINI, Cat. No. 900-108) • 0.01M PBS (Biosharp, Cat. No. 162262) • IMDM (Hyclone, Cat. No. SH30228.01) • Penicillin-Streptomycin (Gibco, Cat. No. 15140122) • DMSO (Sigma, Cat. No. D5879) • Cell counting kit-8 (Signalway Antibody, Cat. No. CP002) • Centrifuge Tube, 15 ml (Excell Bio, Cat. No. CS015-0001) • Cell Culture Dish, (WHB, Cat. No. CS016-0128) • 96-well cell culture cluster (Corning, Cat. No. 3599)
• (1) Cell culture medium: IMDM medium+10% FBS+1% Pen Strep; • (2) PBS buffer: PBS powder was dissolved in 2 L of ultrapure water and sterilized;
(§1) (1) MV-411 cells were cultured in the cell culture medium, and then well-growing cells were selected and inoculated in a 96-well plate at 80 μL/well, with 2×10^4 cells/well. The plate was incubated overnight in a 5% CO2 cell incubator at 37° C.
(§2) (2) 10 mM storage solution of each drug was prepared using dimethylsulfoxide (DMSO). The stock solution was diluted in a ratio of 1:3 with DMSO before use, and then the solution was serially diluted in a ratio of 1:3, to obtain 9 gradient concentrations. Each concentration was further diluted with the medium in a ratio of 1:200 (to ensure that the DMSO concentration in the culture system was 0.1%). Two wells were set for each concentration. 20 μL of each compound solution was added to the cell culture well (with a final concentration of 10 μM, 3.3 μM, 1.1 μM . . . ). The plate was gently shaken and mixed. Additionally, 3 negative control wells (only containing cells) and 3 blank control wells (only containing the medium) were included (6 wells were each added with 20 μL of DMSO diluted with the medium in a ratio of 1:200).
(§3) (1) After 5 days of cultivation, 10 μL of CCK-8 was added to each well, and then the plate was further cultured for 3 h at 37° C. in a 5% CO2 cell incubator.
(§4) (2) The absorbance (OD value) was measured at 450 nm with a multifunctional microplate reader. (3) The data were analyzed using the Dose-response-inhibition equation in GraphPad Prism8 software to obtain the IC50 value.

SHP2 protein [1] = target: T1, SHP2 protein (Homo sapiens, UniProt Q06124); test: Degradation activity on SHP2 protein in MIA Paca-2 cells (Western blot, DC50); parameters: endogenous in cells; host or cells: MIA Paca-2 cells; conditions: read-out: Degradation activity for differenct cell lines MIA Paca-2 (DC50)
T1 sequence (Q06124 1-593): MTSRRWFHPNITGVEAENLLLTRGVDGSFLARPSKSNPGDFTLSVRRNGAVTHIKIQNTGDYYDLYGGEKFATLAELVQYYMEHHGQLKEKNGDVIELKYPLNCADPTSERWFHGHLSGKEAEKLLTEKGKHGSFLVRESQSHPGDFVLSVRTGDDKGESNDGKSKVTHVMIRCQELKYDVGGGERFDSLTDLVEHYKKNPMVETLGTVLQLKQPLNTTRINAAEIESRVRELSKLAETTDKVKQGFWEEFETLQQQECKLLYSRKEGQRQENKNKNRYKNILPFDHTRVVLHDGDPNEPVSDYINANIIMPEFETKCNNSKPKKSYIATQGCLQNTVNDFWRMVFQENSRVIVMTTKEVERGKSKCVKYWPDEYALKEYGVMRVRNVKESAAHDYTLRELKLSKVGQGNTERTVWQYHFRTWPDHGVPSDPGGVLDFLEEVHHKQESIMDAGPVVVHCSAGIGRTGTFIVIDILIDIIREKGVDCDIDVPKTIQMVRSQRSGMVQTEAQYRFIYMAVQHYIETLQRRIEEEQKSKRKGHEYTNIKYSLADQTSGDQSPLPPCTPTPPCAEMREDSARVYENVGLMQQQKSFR
Outline: (§5)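 DC50 is the concentration degrading 50% of SHP2 relative to DMSO control. It was derived by fitting Western blot band densitometry (anti-SHP2, GAPDH reference) from cells exposed 24 h to 0.1–100 nM compound in 0.1% DMSO.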

SHP2 protein [2] = target: T1, SHP2 protein; test: Degradation activity on SHP2 protein in NCI-H358 cells (Western blot, DC50); parameters: endogenous in cells; conditions: read-out: Degradation activity for differenct cell lines NCI-H358 (DC50)
Outline: as §5

KYSE 520 = test: Inhibition of cell proliferation, KYSE 520 (CCK-8); conditions: Homo sapiens, KYSE 520 cells, read-out: Inhibition activity on the proliferation of different cell lines KYSE 520 (IC50)
Description: as §1, §2, §3, §4
(§6) Using a similar method, the IC50 value (nM) for the inhibitory activity of the compound according to the present invention against different cell lines was obtained, and the results are shown in Table 3 (++++: IC50>5 μM; +++: 1 μM<IC50<5 μM; ++: IC50<1 μM).

NCI-H1975 = test: Inhibition of cell proliferation, NCI-H1975 (CCK-8); conditions: Homo sapiens, NCI-H1975 cells, read-out: Inhibition activity on the proliferation of different cell lines NCI-H1975 (IC50)
Description: as §1, §2, §3, §4, §6

Row | Compound | IC50 (MV-411 cell line) [µM] | DC50 (SHP2 protein [1]) [µM] | DC50 (SHP2 protein [2]) [µM] | IC50 (KYSE 520) [µM] | IC50 (NCI-H1975) [µM]
1 | Cc1cc(C(=O)Nc2cccc(Sc3cnc(N4CCC(C)(N)CC4)cn3)c2)ccc1N1CCC(N2CC=C(c3ccc(C(=O)NCc4ccc5c(c4)CN(C4CCC(=O)NC4=O)C5=O)nc3)CC2)CC1 (stereo not shown) [Compound 422] | 1 to 5 | < 0.1 | < 0.1 | > 5 | 
2 | C[C@@H]1OCC2(CCN(c3cnc(Sc4cccc(NCc5ccc(N6CCC(N7CC=C(c8ccc(C(=O)NCc9ccc%10c(c9)CN(C9CCC(=O)NC9=O)C%10=O)nc8)CC7)CC6)c(F)c5)c4)cn3)CC2)[C@@H]1N (stereo partly shown) [Compound 485] |  | < 0.1 |  |  | < 1
3 | C[C@@H]1OCC2(CCN(c3cnc(Sc4cccc(NC(=O)c5ccc(N6CCC(N7CCN(c8ccc(C(=O)NCc9ccc%10c(c9)CN(C9CCC(=O)NC9=O)C%10=O)c(F)c8)CC7)CC6)c(F)c5)c4)cn3)CC2)[C@@H]1N (stereo partly shown) [Compound 501, hydrochloride] | < 1 | < 0.1 |  | 1 to 5 | 1 to 5
4 | CC1(N)CCN(c2cnc(Sc3cccc(NC(=O)c4ccc(N5CCC(N6CC=C(c7ccc(C(=O)NCc8ccc9c(c8)CN(C8CCC(=O)NC8=O)C9=O)nc7)CC6)C5)cc4)c3)cn2)CC1 (stereo not shown) [Compound 403] |  | < 0.1 |  |  | 1 to 5
5 | C[C@@H]1OCC2(CCN(c3cnc(Sc4cccc(NC(=O)c5ccc(N6CCC(N7CC=C(c8ccc(C(=O)NCc9ccc%10c(c9)CN(C9CCC(=O)NC9=O)C%10=O)c(F)c8)CC7)CC6)c(F)c5)c4)cn3)CC2)[C@@H]1N (stereo partly shown) [Compound 482] |  | < 0.1 |  |  | < 1
6 | Cc1cc(N2CCC(N3CC=C(c4ccc(C(=O)NCc5ccc6c(c5)CN(C5CCC(=O)NC5=O)C6=O)nc4)CC3)CC2)ccc1C(=O)Nc1cccc(Sc2cnc(N3CCC(C)(N)CC3)cn2)c1 (stereo not shown) [Compound 421] | < 1 | < 0.1 | < 0.1 | 1 to 5 | 
7 | C[C@@H]1OCC2(CCN(c3cnc(Sc4cccc(NC(=O)c5ccc(N6CCC(N7CC=C(c8ccc(C(=O)NCc9ccc%10c(c9)CN(C9CCC(=O)NC9=O)C%10=O)nc8)CC7)CC6)c(F)c5)c4)cn3)CC2)[C@@H]1N (stereo partly shown) [Compound 412] | 1 to 5 | < 0.1 |  | 1 to 5 | < 1
8 | C[C@@H]1OCC2(CCN(c3cnc(Sc4cccc(NC(=O)c5ccc(N6CCC(N7CCN(c8ccc(C(=O)NCc9ccc%10c(c9)CN(C9CCC(=O)NC9=O)C%10=O)c(F)c8)CC7)CC6)cc5)c4)cn3)CC2)[C@@H]1N (stereo partly shown) [Compound 500] | < 1 | > 1 |  | 1 to 5 | 
